Assay results reported in paper PMC7614775 (Nature chemical biology, 2022).
Read-outs that look alike come from different tables or passages of the source.

Key:
JAK1_C817 [1] = biological target: T1, JAK1_C817 (Homo sapiens, UniProt P23458); assay: Targeted MS-ABPP target engagement (TE50) in human cell lysates; assay type: binding
[2] = tested on: IFNα-stimulated STAT1 phosphorylation; assay: HTRF phospho-STAT1 assay in human PBMCs; assay type: cell-based; details: read-out: IC50, IFNα-stimulated STAT1 phosphorylation (HTRF)
TYK2_C838 [3] = biological target: T2, TYK2_C838 (Homo sapiens, UniProt P29597); assay: Untargeted cysteine MS-ABPP, human PBMCs treated in situ; assay type: binding
HMOX2_C282 = biological target: T3, HMOX2_C282 (Homo sapiens, UniProt P30519); assay: as above; assay type: binding
T3 sequence (P30519 1-316): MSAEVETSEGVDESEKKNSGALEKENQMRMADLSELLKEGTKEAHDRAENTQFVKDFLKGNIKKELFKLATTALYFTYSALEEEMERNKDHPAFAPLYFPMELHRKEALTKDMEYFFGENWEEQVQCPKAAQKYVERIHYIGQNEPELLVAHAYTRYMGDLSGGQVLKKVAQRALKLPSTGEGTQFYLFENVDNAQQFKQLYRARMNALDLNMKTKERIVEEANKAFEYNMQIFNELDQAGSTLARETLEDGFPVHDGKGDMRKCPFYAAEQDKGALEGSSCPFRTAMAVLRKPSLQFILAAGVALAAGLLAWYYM

SLC66A3_C135 = biological target: T4, SLC66A3_C135 (Homo sapiens, UniProt Q8N755); assay: as above; assay type: binding
T4 sequence (Q8N755 20-202): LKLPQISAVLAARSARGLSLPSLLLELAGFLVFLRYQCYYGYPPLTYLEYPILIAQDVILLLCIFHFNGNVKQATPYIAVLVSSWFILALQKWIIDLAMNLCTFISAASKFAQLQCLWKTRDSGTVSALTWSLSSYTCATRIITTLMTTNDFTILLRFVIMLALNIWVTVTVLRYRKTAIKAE

TOR4A_C21 [4] = biological target: T5, TOR4A_C21 (Homo sapiens, UniProt Q9NXH8); assay: as above; assay type: binding
JAK1_C817 [5] = biological target: T1, JAK1_C817; assay: Untargeted cysteine MS-ABPP, human PBMC lysates treated in vitro; assay type: binding; details: PBMC lysate in vitro, 1 h
TOR4A_C21 [6] = biological target: T5, TOR4A_C21; assay: as above; assay type: binding; details: PBMC lysate in vitro, 1 h
TYK2_C838 [7] = biological target: T2, TYK2_C838; assay: as above; assay type: binding; details: PBMC lysate in vitro, 1 h
C816 of mouse JAK1 = C816 of mouse JAK1 (Mus musculus, UniProt P52332); assay: Cysteine MS-ABPP in mouse splenocyte lysates; assay type: binding; details: 0.01 µM, 1 h
[8] = tested on: IL-6-stimulated STAT3 phosphorylation; assay: Phospho-STAT western blot in 22Rv1 cells expressing JAK1 variants; assay type: cell-based, human
[9] = tested on: prolactin (PRL)-stimulated STAT5 (JAK2-dependent) phosphorylation; assay: as above; assay type: cell-based, human; details: 2 µM, 2 h
[10] = tested on: IFNα-stimulated STAT1 phosphorylation (TYK2-dependent); assay: Phospho-STAT western blot in 22Rv1 cells expressing TYK2 variants; assay type: cell-based, human; details: WT-TYK2 expressing 22Rv1 cells; 2 h
[11] = biological target: TYK2 phosphorylation (pTYK2) (Homo sapiens, UniProt P29597); assay: TYK2 phosphorylation western blot in 22Rv1 cells expressing TYK2 variants; assay type: cell-based; details: WT-TYK2
[12] = tested on: IFNα-dependent STAT1 phosphorylation; assay: Phospho-STAT western blot in mouse splenocytes; assay type: cell-based; details: 0.01–0.1 µM
[13] = biological target: JAK1 trans-phosphorylation (Homo sapiens, UniProt P23458); assay: Trans-phosphorylation assay in 22Rv1 cells; assay type: cell-based; details: cells expressing active WT-JAK1-FLAG; 2 µM, 2 h
[14] = tested on: αCD3/αCD28-stimulated primary human T cells (CD25, CD69); assay: T-cell activation analysis by flow cytometry; assay type: cell-based; details: 24 h
[15] = tested on: αCD3/αCD28-stimulated primary human T cells (IFNγ, IL-2 secretion); assay: Cytokine secretion of activated T cells (ELISA); assay type: cell-based; details: αCD3/αCD28 co-stimulation, 24 h
primary human T cells = assay: T-cell viability (Near IR Live/Dead stain); assay type: cell-based; details: 24 h
[16] = tested on: IFNα-stimulated human PBMCs; assay: Real-Time PCR of interferon-stimulated genes; assay type: cell-based; details: compound 2 h, then IFNα 16 h
[17] = biological target: recombinant JAK1 (WT, C810A, C817A) (Homo sapiens, UniProt P23458); assay: Gel-based ABPP in 22Rv1 cells; assay type: binding; details: pre-treatment 0.01–1 μM, 2 h, in situ
Chain of recombinant JAK1 (WT, C810A, C817A) (P23458 whole entry C810A/C817A): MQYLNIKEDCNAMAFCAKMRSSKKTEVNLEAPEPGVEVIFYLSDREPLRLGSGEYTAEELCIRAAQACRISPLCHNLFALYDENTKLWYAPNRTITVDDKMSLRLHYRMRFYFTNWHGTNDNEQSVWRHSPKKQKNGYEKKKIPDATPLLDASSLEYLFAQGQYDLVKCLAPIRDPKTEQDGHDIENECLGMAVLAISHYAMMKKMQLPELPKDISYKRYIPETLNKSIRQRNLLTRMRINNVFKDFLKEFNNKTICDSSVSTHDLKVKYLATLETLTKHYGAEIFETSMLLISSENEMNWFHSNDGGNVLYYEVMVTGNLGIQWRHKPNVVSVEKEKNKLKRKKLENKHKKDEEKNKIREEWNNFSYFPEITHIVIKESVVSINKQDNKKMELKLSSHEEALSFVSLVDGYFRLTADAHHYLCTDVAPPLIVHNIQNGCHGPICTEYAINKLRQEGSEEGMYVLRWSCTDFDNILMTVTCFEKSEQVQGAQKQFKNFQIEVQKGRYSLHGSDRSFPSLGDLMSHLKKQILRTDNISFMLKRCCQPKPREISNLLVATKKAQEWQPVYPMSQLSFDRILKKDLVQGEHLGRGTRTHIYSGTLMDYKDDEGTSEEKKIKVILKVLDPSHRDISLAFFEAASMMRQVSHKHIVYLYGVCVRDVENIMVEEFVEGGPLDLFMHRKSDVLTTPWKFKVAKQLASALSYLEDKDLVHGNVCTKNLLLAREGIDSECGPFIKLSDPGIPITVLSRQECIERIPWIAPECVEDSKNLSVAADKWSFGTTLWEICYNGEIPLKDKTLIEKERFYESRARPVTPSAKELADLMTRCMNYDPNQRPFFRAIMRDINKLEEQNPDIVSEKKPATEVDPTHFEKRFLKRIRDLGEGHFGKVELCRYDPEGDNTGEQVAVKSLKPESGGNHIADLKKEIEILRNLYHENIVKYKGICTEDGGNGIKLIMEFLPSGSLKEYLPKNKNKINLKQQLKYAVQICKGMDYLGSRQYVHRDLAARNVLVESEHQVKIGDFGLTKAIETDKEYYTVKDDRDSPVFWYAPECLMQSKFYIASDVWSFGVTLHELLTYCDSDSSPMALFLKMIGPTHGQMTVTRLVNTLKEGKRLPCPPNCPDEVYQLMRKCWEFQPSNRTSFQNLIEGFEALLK

T5 sequence (Q9NXH8 whole entry): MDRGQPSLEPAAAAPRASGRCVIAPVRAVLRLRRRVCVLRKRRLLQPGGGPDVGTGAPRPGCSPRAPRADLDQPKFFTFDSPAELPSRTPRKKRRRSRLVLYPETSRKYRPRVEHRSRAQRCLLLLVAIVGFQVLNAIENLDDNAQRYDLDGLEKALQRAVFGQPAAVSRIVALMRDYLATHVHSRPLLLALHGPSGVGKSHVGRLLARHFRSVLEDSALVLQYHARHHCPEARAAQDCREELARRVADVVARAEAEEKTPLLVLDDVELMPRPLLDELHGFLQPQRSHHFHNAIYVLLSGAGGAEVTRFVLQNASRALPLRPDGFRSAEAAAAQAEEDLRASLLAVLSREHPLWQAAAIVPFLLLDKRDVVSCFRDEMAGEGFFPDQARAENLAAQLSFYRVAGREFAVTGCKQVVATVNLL
T1 sequence (P23458 whole entry): as the sequence (P23458 whole entry C810A/C817A) above, with A810C, A817C counted along it
T2 sequence (P29597 whole entry): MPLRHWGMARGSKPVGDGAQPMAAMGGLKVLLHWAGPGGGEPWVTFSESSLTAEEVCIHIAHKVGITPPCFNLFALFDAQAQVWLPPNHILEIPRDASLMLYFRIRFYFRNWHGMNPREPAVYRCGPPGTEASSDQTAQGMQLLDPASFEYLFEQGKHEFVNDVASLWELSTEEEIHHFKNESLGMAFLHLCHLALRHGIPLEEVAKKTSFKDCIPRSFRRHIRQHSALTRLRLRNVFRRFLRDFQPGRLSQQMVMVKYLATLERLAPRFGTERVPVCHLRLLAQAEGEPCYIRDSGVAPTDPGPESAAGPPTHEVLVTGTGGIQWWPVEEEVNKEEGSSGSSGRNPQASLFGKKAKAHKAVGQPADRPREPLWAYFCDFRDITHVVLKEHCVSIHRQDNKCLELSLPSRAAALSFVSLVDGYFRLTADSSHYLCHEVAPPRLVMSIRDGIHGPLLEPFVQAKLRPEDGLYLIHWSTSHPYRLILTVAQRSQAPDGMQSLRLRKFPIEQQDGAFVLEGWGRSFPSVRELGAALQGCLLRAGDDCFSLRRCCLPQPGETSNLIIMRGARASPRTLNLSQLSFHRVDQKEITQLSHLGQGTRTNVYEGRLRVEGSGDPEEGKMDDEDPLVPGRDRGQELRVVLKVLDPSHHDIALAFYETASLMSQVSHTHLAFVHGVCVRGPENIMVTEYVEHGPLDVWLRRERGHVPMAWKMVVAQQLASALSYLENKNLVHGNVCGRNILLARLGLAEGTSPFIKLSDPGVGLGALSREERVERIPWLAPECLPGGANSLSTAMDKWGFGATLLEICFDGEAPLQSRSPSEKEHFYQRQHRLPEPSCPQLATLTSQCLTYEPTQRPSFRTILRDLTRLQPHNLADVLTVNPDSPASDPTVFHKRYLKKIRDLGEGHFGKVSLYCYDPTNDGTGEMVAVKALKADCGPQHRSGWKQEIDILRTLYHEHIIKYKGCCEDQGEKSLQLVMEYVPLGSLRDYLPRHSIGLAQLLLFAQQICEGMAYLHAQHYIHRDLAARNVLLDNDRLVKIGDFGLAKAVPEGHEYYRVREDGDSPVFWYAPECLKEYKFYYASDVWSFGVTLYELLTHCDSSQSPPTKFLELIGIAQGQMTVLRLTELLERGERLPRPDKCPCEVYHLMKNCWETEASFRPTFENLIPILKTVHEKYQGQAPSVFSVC
Chain of C816 of mouse JAK1 (P52332 whole entry): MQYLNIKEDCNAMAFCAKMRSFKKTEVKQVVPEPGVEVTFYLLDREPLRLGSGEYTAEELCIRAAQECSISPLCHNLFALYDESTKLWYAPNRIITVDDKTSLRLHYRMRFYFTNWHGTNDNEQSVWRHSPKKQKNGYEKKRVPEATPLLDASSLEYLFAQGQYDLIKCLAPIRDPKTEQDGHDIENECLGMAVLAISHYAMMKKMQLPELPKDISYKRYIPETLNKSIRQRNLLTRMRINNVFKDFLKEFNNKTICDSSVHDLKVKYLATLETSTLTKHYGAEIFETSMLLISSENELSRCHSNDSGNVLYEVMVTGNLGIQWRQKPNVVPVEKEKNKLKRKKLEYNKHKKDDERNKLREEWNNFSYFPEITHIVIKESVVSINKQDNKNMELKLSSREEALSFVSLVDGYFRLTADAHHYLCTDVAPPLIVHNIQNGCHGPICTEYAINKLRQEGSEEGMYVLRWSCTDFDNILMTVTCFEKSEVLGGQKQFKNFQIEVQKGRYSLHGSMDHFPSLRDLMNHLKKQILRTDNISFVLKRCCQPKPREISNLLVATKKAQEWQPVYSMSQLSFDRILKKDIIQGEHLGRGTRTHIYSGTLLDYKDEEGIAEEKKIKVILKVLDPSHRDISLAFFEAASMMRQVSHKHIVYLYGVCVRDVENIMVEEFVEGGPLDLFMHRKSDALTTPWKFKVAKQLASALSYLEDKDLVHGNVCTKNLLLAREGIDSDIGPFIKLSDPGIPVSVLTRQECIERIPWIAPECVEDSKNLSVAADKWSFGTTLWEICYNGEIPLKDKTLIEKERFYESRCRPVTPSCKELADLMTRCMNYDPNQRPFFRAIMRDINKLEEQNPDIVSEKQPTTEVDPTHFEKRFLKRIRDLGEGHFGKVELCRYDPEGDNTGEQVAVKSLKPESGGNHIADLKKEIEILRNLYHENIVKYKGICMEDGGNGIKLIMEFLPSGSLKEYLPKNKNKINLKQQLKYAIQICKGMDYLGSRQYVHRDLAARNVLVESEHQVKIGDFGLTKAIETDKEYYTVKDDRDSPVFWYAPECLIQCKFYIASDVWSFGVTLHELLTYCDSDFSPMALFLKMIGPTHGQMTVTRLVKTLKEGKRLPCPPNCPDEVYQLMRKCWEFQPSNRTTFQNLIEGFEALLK
Chain of JAK1 trans-phosphorylation (P23458 whole entry): as the sequence (P23458 whole entry C810A/C817A) above, with A810C, A817C counted along it
Chain of TYK2 phosphorylation (pTYK2) (P29597 whole entry): as the sequence (P29597 whole entry) above

change of TE50 with preincubation time (JAK1_C817 [1]; Jurkat T-cell lysate, 10, 30 and 60 minutes): time-dependent decreases
potency compared with the corresponding diastereomers (5c and 5d) (JAK1_C817 [1]; TE50 and pSTAT pIC50): substantially more potent
IC50 ([2]; media supplemented with 10% fetal bovine serum (FBS)): 46 nM
IC50 ([2]; serum-free media): 32 nM
%Engagement (TYK2_C838 [3]; 0.01 µM): 9%
Engagement Ratio (DMSO/VVD-118313) (TYK2_C838 [3]; 0.01 µM): 1.1
Engagement Ratio (DMSO/VVD-118313) (TYK2_C838 [3]; 0.1 µM): 5.4
%Engagement (TYK2_C838 [3]; 1 µM): 92%
Engagement Ratio (DMSO/VVD-118313) (TYK2_C838 [3]; 1 µM): 12.5
%Engagement (TYK2_C838 [3]; 10 µM): 95%
Engagement Ratio (DMSO/VVD-118313) (TYK2_C838 [3]; 10 µM): 18.2
Engagement Ratio (DMSO/VVD-118313) (HMOX2_C282; 0.01 µM): 1.0
%Engagement (HMOX2_C282; 0.1 µM): 27%
Engagement Ratio (DMSO/VVD-118313) (HMOX2_C282; 0.1 µM): 1.4
%Engagement (HMOX2_C282; 1 µM): engaged
Engagement Ratio (DMSO/VVD-118313) (HMOX2_C282; 1 µM): 12.5
%Engagement (HMOX2_C282; 10 µM): 98%
Engagement Ratio (DMSO/VVD-118313) (HMOX2_C282; 10 µM): 20.0
Engagement Ratio (DMSO/VVD-118313) (SLC66A3_C135; 0.01 µM): 1.0
%Engagement (SLC66A3_C135; 0.1 µM): 12%
Engagement Ratio (DMSO/VVD-118313) (SLC66A3_C135; 0.1 µM): 1.1
Engagement Ratio (DMSO/VVD-118313) (SLC66A3_C135; 1 µM): 4.4
%Engagement (SLC66A3_C135; 10 µM): 99%
Engagement Ratio (DMSO/VVD-118313) (SLC66A3_C135; 10 µM): 20.0
Engagement Ratio (DMSO/VVD-118313) (TOR4A_C21 [4]; 0.01 µM): 0.9
Engagement Ratio (DMSO/VVD-118313) (TOR4A_C21 [4]; 0.1 µM): 1.0
%Engagement (TOR4A_C21 [4]; 1 µM): 65%
Engagement Ratio (DMSO/VVD-118313) (TOR4A_C21 [4]; 1 µM): 2.9
%Engagement (TOR4A_C21 [4]; 10 µM): 92%
Engagement Ratio (DMSO/VVD-118313) (TOR4A_C21 [4]; 10 µM): 11.8
%Engagement (JAK1_C817 [5]; 0.01 µM): 81%
Engagement Ratio (DMSO/VVD-118313) (JAK1_C817 [5]; 0.01 µM): 5.1
%Engagement (JAK1_C817 [5]; 0.1 µM): 96%
Engagement Ratio (DMSO/VVD-118313) (JAK1_C817 [5]; 0.1 µM): 20.0
%Engagement (JAK1_C817 [5]; 1 µM): 97%
Engagement Ratio (DMSO/VVD-118313) (JAK1_C817 [5]; 1 µM): 20.0
%Engagement (JAK1_C817 [5]; 10 µM): 98%
Engagement Ratio (DMSO/VVD-118313) (JAK1_C817 [5]; 10 µM): 20.0
%Engagement (TOR4A_C21 [6]; 0.01 µM): 9%
Engagement Ratio (DMSO/VVD-118313) (TOR4A_C21 [6]; 0.01 µM): 1.1
%Engagement (TOR4A_C21 [6]; 0.1 µM): 49%
Engagement Ratio (DMSO/VVD-118313) (TOR4A_C21 [6]; 0.1 µM): 1.9
%Engagement (TOR4A_C21 [6]; 1 µM): 90%
Engagement Ratio (DMSO/VVD-118313) (TOR4A_C21 [6]; 1 µM): 10.0
%Engagement (TOR4A_C21 [6]; 10 µM): 97%
Engagement Ratio (DMSO/VVD-118313) (TOR4A_C21 [6]; 10 µM): 20.0
Engagement Ratio (DMSO/VVD-118313) (TYK2_C838 [7]; 0.01 µM): 0.9
%Engagement (TYK2_C838 [7]; 0.1 µM): 32%
Engagement Ratio (DMSO/VVD-118313) (TYK2_C838 [7]; 0.1 µM): 1.5
%Engagement (TYK2_C838 [7]; 1 µM): 83%
Engagement Ratio (DMSO/VVD-118313) (TYK2_C838 [7]; 1 µM): 5.9
%Engagement (TYK2_C838 [7]; 10 µM): 96%
Engagement Ratio (DMSO/VVD-118313) (TYK2_C838 [7]; 10 µM): 20.0
engagement of mouse JAK1 C816 (% inhibition) (C816 of mouse JAK1): > 90%
effect on phosphorylation of the TYK2 activation loop [11]: inhibited
effect on trans-phosphorylation of inactive JAK1-HA variants [13]: completely blocked
SMILES: CS(=O)(=O)N1CC[C@H](C#CC(=O)N2CCC[C@@H](c3ccc(Cl)c(Cl)c3)C2)C1 [VVD-118313]
inhibition of IL-6-STAT3 phosphorylation ([8]; C817A-JAK1-expressing 22Rv1 cells, up to 2 µM): < 10%
effect on IL-6-stimulated pSTAT3 ([8]; WT- or C810A-JAK1-expressing 22Rv1 cells, 2 µM, 2 h): blocked
maximal inhibition of IL-6-STAT3 phosphorylation ([8]; WT- or C810A-JAK1-expressing 22Rv1 cells, at ~0.2 µM): > 80%
effect on PRL-induced STAT5 phosphorylation [9]: inactive
effect on IFNα-induced STAT1 phosphorylation [10]: blocked
effect on IFNα-dependent STAT1 phosphorylation [12]: inhibited
CD25+ (% of live cells) ([14]; 0.4 μM, representative flow cytometry plot): 83%
T-cell activation (proportion of CD25+ T-cells) ([14]; αCD3/αCD28 co-stimulation): partially inhibited
early-stage activation marker CD69 ([14]; αCD3/αCD28 co-stimulation): Neither compound affected
production of IL-2 [15]: slightly increased
secretion of IFNγ [15]: partially blocked
T-cell viability (primary human T cells): Neither compound affected
induction of interferon-stimulated genes (OAS1, MX1, IFIT1, CCL2) [16]: blocked the induction
competition of probe 6 labeling of WT-JAK1 [17]: blocked in a concentration-dependent manner
